# Reference: patent publication US20180024136A1, “Development of ABCG2-Sensitive Fluorescent Probe For Isolation of ABCG2low Neural Stem/Progenitor Cells” (National University of Singapore, priority 2015, published 2018)
# Key:
# [1] = Spectroscopic properties of CF library (absorbance, emission, quantum yield, extinction coefficient); format: physicochemical
# Description: All the chemicals and solvents were purchased from Sigma Aldrich, Alfa Aesar, Fluka, MERCK, Tocris or Acros, and used without further purification. Normal phase purifications were carried out using Merck Silica Gel 60 (particle size: 0.040-0.063 mm, 230-400 mesh). Analytical characterization was performed on a HPLC-MS (Agilent-1200 series) with a DAD detector and a single quadrupole mass spectrometer (6130 series) with an ESI probe. ^1H-NMR and ^13C-NMR spectra were recorded on Bruker Avance 300 MHz NMR spectrometers, and chemical shifts are expressed in parts per million (ppm) and coupling constants are reported as a J value in Hertz (Hz). High resolution mass spectrometry (HRMS) data was recorded on a Micro mass VG 7035 (Mass Spectrometry Laboratory at National University of Singapore (NUS)). Spectroscopic and quantum yield data were measured on spectroscopic measurements, performed on a fluorometer and UV/VIS instrument, Synergy 4 of Bioteck Company. The slit width was 1 nm for both excitation and emission, and the data analysis was performed using GraphPrism 5.0.
# [2] = tested on: NS-5 cells; test: DOFLA screening: live cell staining of MEF, mESC, NS5 and differentiated NS5; format: cell-based, mouse; details: 1 μM, 1 hour, NS5, D-NS5
# Description: The screening platform was composed of mouse embryonic fibroblast (MEF), mouse embryonic stem cells (mESC), NS5 and differentiated NS5 (D-NS5) (FIG. 4). A derivate from the CF library was selected having eleven saturated carbon chain (CF-C11), named as compound of designation green 13 (CDg13, λabs/λem=520/553 nm; quantum yield=0.82) (FIG. 4A, Table 3). […] To characterize the subcellular target of the CDg13 probe, the image of CDg13 using confocal microscopy was analyzed. The CDg13 stained organelle was clearly merged with the staining of a molecular probe that targeted endoplasmic reticulum (ER), but not with Golgi, lysosome, and mitochondria targeted probes (FIG. 4C). The value of co-localization with ER was appeared as 0.97 on both of Pearson's Collection and Mander's overlap, whereas other organelle markers were below 0.83.
# Screening of fluorescent probes of DOFL was conducted using high-throughput imaging analysis as previously described^7.
# Hoechst 33342 (2 μM) and CDg13 (1 μM) were added to the cell culture medium. After incubation for 1 hour, culture media were changed with BSA-free medium to maintain CDg13 staining. […] The subcellular staining was observed under confocal microscope and their co-localizations were analyzed by Pearson's Collection and Mander's overlap using NIS-Elements software of Eclipse Ti microscope (Nikon).
# [3] = tested on: neurospheres from E14.5 mouse embryonic brain; test: Neuronal differentiation of primary neurospheres (Tuj1/GFAP immunostaining); format: cell-based; details: neurospheres from sorted cells, 150 per group
# Description: All animal experiments were approved by the Biomedical Research Council Singapore, Institutional Animal Care and Use Committee (IACUC). E14.5 embryos were obtained from C57BL/6 pregnant mice. Cerebral cortices were removed and triturated into single-cell suspension by digestion of dissected tissues with StemPro® Accutase® (Invitrogen) and filtered through 40 μm nylon mesh. Dissociated cells were seeded at a density of 1×10^3 cells/cm^2 in neurosphere growth medium [DMEM/F12 supplemented with 2% B27 (without vitamin A), bFGF (10 ng/ml), EGF (20 ng/ml), 1× anti-anti]. All the cell culture components were from Invitrogen. Passaging of neurosphere was conducted through single cell dissociation of neurospheres as described above. […]
# More than a hundred of differentiated neurospheres were fixed in paraformaldehyde (4%, w/v) for 15 min, permeabilized in Triton X-100 (0.1% v/v), and blocked with BSA (3% w/v) for 1 hour. […] The existence of clear Tuj1 positive cells inside a differentiated neurosphere were counted as neuron-contained neurospheres. Neuronal clumps were counted if more than 10 of nuclei of neuronal cells are packaged each other. Neurite outgrowth of Tuj1 positive cells were measured using neurite outgrowth module parameter of MetaXpress ([…]) with maximum width of 1 μm. The phases with high neurite outgrowth were selected and counted at least 300 cells.
# [4] = tested on: Abcg2; test: CDg13 staining of Abcg2 knockdown D-NS5 cells; format: cell-based, mouse; details: D-NS5, siAbcg2 versus controls, 1 hour staining
# Description: FIGS. 9A-9D show gene expression of ABC transporters: (A) undifferentiated (NS5) and 3-days differentiated NS5 (D-NS5), (B) the mRNA expression of the indicated ABC transporters were analyzed by qRT-PCR using total RNA from control and Abcg2-targeted siRNA transfected D-NS5 cells (N=3), and (C) and (D) negative (−) control siRNA (siCon) and Abcg2-targeted siRNA (siAbcg2) treated D-NS5 cells were stained with CDg13 for 1 hour, representative cells image (C) and the intensity staining of CDg13 (D) are shown (N=3) (data were normalized by β-actin expression and represented as relative fold, all values are means±SEM, *, p<0.05; **, p<0.01, unpaired two-tailed Student's T-test was used to calculate statistical significance)(Bar in (C): 100 μm).
# siRNAs targeted to mouse ABCG2 gene and non-targeted control (Santa Cruz) were transiently introduced to 2 days differentiated NS-5 cells by using RNAiMAX (Invitrogen). We used 20 nM of siRNA and 3 μl of RNAiMAX for transfecting one well of 12-well plate (70-80% confluence with cells). Transfection efficiency in the condition was more than 90% as measured by fluorescence non-targeted siRNA. The levels of RNA and their analysis were performed after 3 days of transfection.
# [5] = tested on: human KB3-1 cells; test: MTS viability assay on KB3-1 cells; format: cell-based; details: 48 h
# [6] = tested on: mouse NSPCs; test: Neurosphere size after co-incubation with probe; format: cell-based; details: 1 μM, 7 days
# [7] = target: ABCB1 (Homo sapiens, UniProt P08183); test: in vitro
# Sequence of ABCB1 (P08183 whole entry): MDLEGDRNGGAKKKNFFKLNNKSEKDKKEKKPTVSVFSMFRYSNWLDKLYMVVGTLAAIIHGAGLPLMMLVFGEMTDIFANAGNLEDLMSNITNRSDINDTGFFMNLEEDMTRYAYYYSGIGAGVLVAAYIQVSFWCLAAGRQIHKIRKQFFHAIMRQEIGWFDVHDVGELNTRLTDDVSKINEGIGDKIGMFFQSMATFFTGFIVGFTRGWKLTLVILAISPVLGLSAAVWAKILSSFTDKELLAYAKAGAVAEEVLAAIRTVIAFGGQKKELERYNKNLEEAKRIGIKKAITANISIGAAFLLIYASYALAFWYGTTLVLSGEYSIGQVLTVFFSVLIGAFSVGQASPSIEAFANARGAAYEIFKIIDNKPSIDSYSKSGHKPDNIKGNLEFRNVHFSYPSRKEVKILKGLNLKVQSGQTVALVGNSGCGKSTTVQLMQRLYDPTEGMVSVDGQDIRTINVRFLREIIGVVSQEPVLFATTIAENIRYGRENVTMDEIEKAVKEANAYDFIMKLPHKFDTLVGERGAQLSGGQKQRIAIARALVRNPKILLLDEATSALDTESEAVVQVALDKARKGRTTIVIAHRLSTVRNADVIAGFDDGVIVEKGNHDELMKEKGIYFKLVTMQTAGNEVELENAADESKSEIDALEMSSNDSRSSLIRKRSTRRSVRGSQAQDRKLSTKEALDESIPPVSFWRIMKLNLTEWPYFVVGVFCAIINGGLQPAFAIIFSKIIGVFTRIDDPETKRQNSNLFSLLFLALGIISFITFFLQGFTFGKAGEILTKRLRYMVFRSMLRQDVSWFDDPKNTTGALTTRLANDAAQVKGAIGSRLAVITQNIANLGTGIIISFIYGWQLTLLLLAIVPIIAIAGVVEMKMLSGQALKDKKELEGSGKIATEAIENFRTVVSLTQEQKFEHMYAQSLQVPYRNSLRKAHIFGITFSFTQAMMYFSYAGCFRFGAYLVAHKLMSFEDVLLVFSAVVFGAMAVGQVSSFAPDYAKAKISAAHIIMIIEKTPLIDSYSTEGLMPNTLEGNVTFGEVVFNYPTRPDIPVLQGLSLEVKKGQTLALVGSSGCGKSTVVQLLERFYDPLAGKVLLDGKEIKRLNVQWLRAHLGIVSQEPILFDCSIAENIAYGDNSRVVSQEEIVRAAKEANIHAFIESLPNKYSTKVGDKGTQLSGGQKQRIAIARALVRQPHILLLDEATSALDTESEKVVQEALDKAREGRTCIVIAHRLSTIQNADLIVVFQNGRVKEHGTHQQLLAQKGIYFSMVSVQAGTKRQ
smiles,measurement,setting,value
CCCCCCCCCN(CCCCCCCCC)C(=O)c1ccc(-c2c3cc(Cl)c(=O)cc-3oc3cc(O)c(Cl)cc23)cc1 [CDg13],Abs (nm),[1]; 100 μM in ethanol,520 nm
same,Em (nm),[1]; 100 μM in ethanol,553 nm
same,QY (Φ),"[1]; 100 μM in ethanol, reference fluorescein",0.82
same,extinction co-efficient,[1]; measured in ethanol,40933.2 M⁻¹ cm⁻¹
same,cell type staining selectivity,[2],"preferentially stains undifferentiated NS-5 cells, a NSPC line, but not other cell types"
same,neurospheres differentiated to neuron in the whole spheres,[3],95.3%
same,CDg13 staining increase by Abcg2 knockdown,[4],around 2 fold
same,toxicity,[5]; 1 to 10 μM,No toxicity was observed
same,concentration at which cells started dying,[5],50 µM
same,effect on neurosphere size,[6],no significant difference in neurosphere size
same,neurosphere size on average,[6]; third passage,109 μm
same,"fold induction at 1 h, 10 µM",[7],1.5
